{"source": "paper PMC10696396", "about": "“HilE represses the activity of the Salmonella virulence regulator HilD via a mechanism distinct from that of intestinal long-chain fatty acids” (The Journal of Biological Chemistry, 2023)", "key": {"HilD [1]": {"biological_target": "T1, HilD (Salmonella enterica, UniProt P0CL08)", "test": "biochemical", "parameters": "EYFP-HilD (full-length HilD with N-terminal EYFP tag); microscale thermophoresis, fatty acid titrated against EYFP-HilD in presence of Pluronic F-127, MST on-time 1.5 s", "conditions": "in presence of Pluronic F-127; read-out: Kd ± SD"}, "HilD [2]": {"biological_target": "T1, HilD", "test": "EMSA with hilA promoter DNA", "format": "biochemical", "parameters": "HilD"}, "HilD [3]": {"biological_target": "T1, HilD", "test": "MST", "format": "binding", "parameters": "EYFP-HilD (full-length HilD with N-terminal EYFP tag)", "conditions": "read-out: Kd ± SD"}, "HilD [4]": {"biological_target": "T2, HilD (Salmonella enterica, UniProt P0CL08, E102A)", "T2 construct": "HilD point mutant", "T2 sequence (P0CL08 1-309 E102A)": "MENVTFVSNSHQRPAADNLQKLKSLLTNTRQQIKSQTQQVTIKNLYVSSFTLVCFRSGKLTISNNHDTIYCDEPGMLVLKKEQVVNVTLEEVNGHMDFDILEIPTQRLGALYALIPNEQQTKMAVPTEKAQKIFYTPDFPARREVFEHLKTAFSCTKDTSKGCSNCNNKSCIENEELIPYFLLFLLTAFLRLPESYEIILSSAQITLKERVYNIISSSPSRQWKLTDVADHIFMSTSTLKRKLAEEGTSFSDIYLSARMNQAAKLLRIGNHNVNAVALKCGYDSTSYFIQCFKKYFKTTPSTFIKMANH", "test": "MST", "format": "binding"}, "HilD [5]": {"biological_target": "T3, HilD (Salmonella enterica, UniProt P0CL08, R267A)", "T3 construct": "HilD point mutant", "T3 sequence (P0CL08 1-309 R267A)": "T2 sequence (P0CL08 1-309 E102A)", "test": "MST", "format": "binding"}, "HilD [6]": {"biological_target": "T4, HilD (Salmonella enterica, UniProt P0CL08, E102A/K264A/R267A)", "T4 construct": "HilD triple alanine mutant", "T4 sequence (P0CL08 1-309 E102A/K264A/R267A)": "T2 sequence (P0CL08 1-309 E102A)", "test": "MST", "format": "binding"}, "HilD [7]": {"biological_target": "T5, HilD (Salmonella enterica, UniProt P0CL08, K264A)", "T5 construct": "HilD point mutant", "T5 sequence (P0CL08 1-309 K264A)": "T2 sequence (P0CL08 1-309 E102A)", "test": "MST", "format": "binding"}, "HilD [8]": {"biological_target": "T1, HilD", "test": "MST; supported by HDX-MS, nanoDSF and BS3 cross-linking", "format": "binding", "parameters": "EYFP-HilD (full-length HilD with N-terminal EYFP tag)", "conditions": "read-out: Kd ± SD"}, "HilD [9]": {"biological_target": "T1, HilD", "test": "MST; supported by nanoDSF melting temperature increase", "format": "binding", "parameters": "EYFP-HilD (full-length HilD with N-terminal EYFP tag)", "conditions": "read-out: Kd ± SD"}}, "data": [{"smiles": "CCCCCCCC/C=C\\CCCCCCCC(=O)OC", "note": "[Methyl Oleate]", "values": [{"measurement": "Kd", "setting": "HilD [1]", "value": 739, "unit": "µM"}]}, {"smiles": "CCCC/C=C\\CCCCCCCC(=O)O", "note": "[Myristoleic Acid]", "values": [{"measurement": "Kd", "setting": "HilD [1]", "value": 567, "unit": "µM"}]}, {"smiles": "CCCCCCCC/C=C/CCCCCCCC(=O)O", "note": "[elaidic acid]", "values": [{"measurement": "EMSA with hilA promoter DNA", "setting": "HilD [2]", "value": "Elaidic acid appears to bind to HilD with similar affinity to oleic acid"}]}, {"smiles": "CCCCCCCC/C=C\\CCCCCCCCCCCC(=O)O", "note": "[erucic acid]", "values": [{"measurement": "Kd", "setting": "HilD [3]", "value": "12.8 ± 3.33", "unit": "µM"}, {"measurement": "Kd", "setting": "HilD [1]", "value": 14.7, "unit": "µM"}]}, {"smiles": "CCCCCCCC/C=C\\CCCCCCCC(=O)O", "note": "[oleic acid]", "values": [{"measurement": "Kd", "setting": "HilD [4]", "value": "39 ± 8.26", "unit": "µM"}, {"measurement": "Kd", "setting": "HilD [5]", "value": "39.4 ± 7.98", "unit": "µM"}, {"measurement": "Kd", "setting": "HilD [6]", "value": "39.7 ± 7.9", "unit": "µM"}, {"measurement": "Kd", "setting": "HilD [7]", "value": "27.1 ± 7.08", "unit": "µM"}, {"measurement": "Kd", "setting": "HilD [8]", "value": "15 ± 3.21", "unit": "µM"}]}, {"smiles": "CCCCCC/C=C\\CCCCCCCC(=O)O", "note": "[palmitoleic acid]", "values": [{"measurement": "Kd", "setting": "HilD [9]", "value": "27.6 ± 8.7", "unit": "µM"}]}]}
